# Molecular target: HIS-TGF-βR1 T204D (Homo sapiens (Human), UniProt P36897, T204D)
# Test: HTRF probe displacement assay with HIS-TGF-βR1 T204D
# Settings: not given
# Sequence of HIS-TGF-βR1 T204D (P36897 34-503 T204D): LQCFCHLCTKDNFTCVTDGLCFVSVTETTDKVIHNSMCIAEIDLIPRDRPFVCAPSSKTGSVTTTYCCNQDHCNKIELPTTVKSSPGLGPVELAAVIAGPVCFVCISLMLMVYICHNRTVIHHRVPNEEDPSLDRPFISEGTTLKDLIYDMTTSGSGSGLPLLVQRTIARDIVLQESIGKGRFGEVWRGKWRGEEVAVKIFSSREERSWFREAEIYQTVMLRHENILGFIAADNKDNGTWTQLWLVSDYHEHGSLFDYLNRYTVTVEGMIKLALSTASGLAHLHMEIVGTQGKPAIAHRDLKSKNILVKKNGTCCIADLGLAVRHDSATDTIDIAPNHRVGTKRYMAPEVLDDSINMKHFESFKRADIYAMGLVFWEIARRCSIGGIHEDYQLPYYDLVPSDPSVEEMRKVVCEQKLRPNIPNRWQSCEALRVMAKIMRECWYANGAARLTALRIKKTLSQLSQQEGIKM
row,SMILES,IC50 [nM]
1,"N#Cc1cnc2ccc(-c3c(-c4ccc(F)cc4F)ncn3CC(F)F)cn12 [227′, 6-(1-(2,2-difluoroethyl)-4-(2,4-difluorophenyl)-1H-imidazol-5-yl)imidazo[1,2-a]pyridine-3-carbonitrile]",8.1

# Same assay, conditions: read-out: TGFbr1 IC50; HTRF probe displacement, 1 nM HIS-TGF-βR1 T204D, 1 hour at room temperature
row,SMILES,IC50 [nM]
1,"NC(=O)c1cnc2ccc(-c3c(-c4ccc(F)cc4)ncn3C34CC(C3)C4)nn12 [136′, 6-(1-(bicyclo[1.1.1]pentan-1-yl)-4-(4-fluorophenyl)-1H-imidazol-5-yl)imidazo[1,2-b]pyridazine-3-carboxamide]",12.4
2,"N#Cc1cnc2ccc(-c3c(-c4cccc(N)c4)ncn3CC(F)F)nn12 [240′, 6-(4-(3-aminophenyl)-1-(2,2-difluoroethyl)-1H-imidazol-5-yl)imidazo[1,2-b]pyridazine-3-carbonitrile]",14.3
3,"CC(O)c1cnc2ccc(-c3c(-c4ccc(F)cc4)ncn3CC(F)F)nn12 (centres unmarked) [Example 214′, 1-(6-(1-(2,2-difluoroethyl)-4-(4-fluorophenyl)-1H-imidazol-5-yl)imidazo[1,2-b]pyridazin-3-yl)ethanol]",1.1
4,"Fc1ccc(-c2ncn(C3(C(F)F)CC3)c2-c2ccc3nccn3n2)cc1 [Example 189′, 6-(1-(1-(difluoromethyl)cyclopropyl)-4-(4-fluorophenyl)-1H-imidazol-5-yl)imidazo[1,2-b]pyridazine]",1.6
5,"N#Cc1cnc2ccc(-c3c(-c4cccc(CO)c4)ncn3CC(F)F)nn12 [256′, 6-(1-(2,2-difluoroethyl)-4-(3-(hydroxymethyl)phenyl)-1H-imidazol-5-yl)imidazo[1,2-b]pyridazine-3-carbonitrile]",5
6,"N#Cc1cnc2ccc(-c3c(-c4ccc(F)cc4)ncn3C3CC(CO)C3)nn12 (centres unmarked) [27′, 6-(4-(4-fluorophenyl)-1-(3-(hydroxymethyl)cyclobutyl)-1H-imidazol-5-yl)imidazo[1,2-b]pyridazine-3-carbonitrile]",0.6
7,"CCn1cnc(-c2ccc(F)c(Cl)c2)c1-c1ccc2ncc(C#N)n2n1 [52′, 6-(4-(3-chloro-4-fluorophenyl)-1-ethyl-1H-imidazol-5-yl)imidazo[1,2-b]pyridazine-3-carbonitrile]",0.9
8,"N#Cc1cnc2ccc(-c3c(-c4ccc(F)cc4)ncn3CC(F)F)cn12 [Example 224′, 6-(1-(2,2-difluoroethyl)-4-(4-fluorophenyl)-1H-imidazol-5-yl)imidazo[1,2-a]pyridine-3-carbonitrile]",66.7
9,"N#Cc1cnc2ccc(-c3c(-c4cccc(C(N)=O)c4)ncn3CC(F)F)nn12 [255′, 3-(5-(3-cyanoimidazo[1,2-b]pyridazin-6-yl)-1-(2,2-difluoroethyl)-1H-imidazol-4-yl)benzamide]",867
10,"N#Cc1ccc(-c2ncn(CC(F)F)c2-c2ccc3ncc(C#N)n3n2)cc1 [258′, 6-(4-(4-cyanophenyl)-1-(2,2-difluoroethyl)-1H-imidazol-5-yl)imidazo[1,2-b]pyridazine-3-carbonitrile]",356
11,"CC(O)c1cnc2ccc(-c3c(-c4ccc(F)cc4)ncn3CC(F)F)cn12 (centres unmarked) [Example 274′, 1-(6-(1-(2,2-difluoroethyl)-4-(4-fluorophenyl)-1H-imidazol-5-yl)imidazo[1,2-a]pyridin-3-yl)ethanol]",137
12,"N#Cc1cnc2ccc(-c3c(-c4ccc(F)cc4)ncn3C[C@@H](O)CO)cn12 [71′, (R)-6-(1-(2,3-dihydroxypropyl)-4-(4-fluorophenyl)-1H-imidazol-5-yl)imidazo[1,2-a]pyridine-3-carbonitrile]",170
13,"CCC(CO)n1cnc(-c2ccc(F)cc2)c1-c1ccc2ncc(C#N)n2c1 (centres unmarked) [83′, 6-(4-(4-fluorophenyl)-1-(1-hydroxybutan-2-yl)-1H-imidazol-5-yl)imidazo[1,2-a]pyridine-3-carbonitrile]",189
14,"NC(=O)c1cnc2ccc(-c3c(-c4ccc(F)cc4)ncn3C3CNC3)nn12 [195B′, 6-(1-(azetidin-3-yl)-4-(4-fluorophenyl)-1H-imidazol-5-yl)imidazo[1,2-b]pyridazine-3-carboxamide]",45.4
15,"CONC(=O)c1cnc2ccc(-c3c(-c4ccc(F)cc4)ncn3CC(F)F)nn12 [209′, 6-(1-(2,2-difluoroethyl)-4-(4-fluorophenyl)-1H-imidazol-5-yl)-N-methoxyimidazo[1,2-b]pyridazine-3-carboxamide]",0.7
16,"N#Cc1cnc2ccc(-c3c(-c4ccc(N)cc4)ncn3CC(F)F)nn12 [264′, 6-(4-(4-aminophenyl)-1-(2,2-difluoroethyl)-1H-imidazol-5-yl)imidazo[1,2-b]pyridazine-3-carbonitrile]",516
17,"NC(=O)c1cnc2ccc(-c3c(-c4ccc(F)cc4)ncn3C3CC3)nn12 [109′, 6-(1-cyclopropyl-4-(4-fluorophenyl)-1H-imidazol-5-yl)imidazo[1,2-b]pyridazine-3-carboxamide]",2.5
18,"N#Cc1cnc2ccc(-c3c(-c4ccc(F)c(Cl)c4)ncn3CC(F)F)nn12 [33′, 6-(4-(3-chloro-4-fluorophenyl)-1-(2,2-difluoroethyl)-1H-imidazol-5-yl)imidazo[1,2-b]pyridazine-3-carbonitrile]",1
19,"Cc1nc(-c2ccc(F)cc2)c(-c2ccc3[nH]ncc3c2)n1CC(F)F [Example 273′, 5-(1-(2,2-difluoroethyl)-4-(4-fluorophenyl)-2-methyl-1H-imidazol-5-yl)-1H-indazole]",29.6

row,SMILES,IC50 [nM]
1,"CC(C)(F)Cn1cnc(-c2ccc(F)c(Cl)c2)c1-c1ccc2ncc(C#N)n2n1 [57′, 6-(4-(3-chloro-4-fluorophenyl)-1-(2-fluoro-2-methylpropyl)-1H-imidazol-5-yl)imidazo[1,2-b]pyridazine-3-carbonitrile]",1.5
2,"CC(C)(O)CCn1cnc(-c2ccc(F)cc2)c1-c1ccc2ncc(C#N)n2n1 [12′, 6-(4-(4-fluorophenyl)-1-(3-hydroxy-3-methylbutyl)-1H-imidazol-5-yl)imidazo[1,2-b]pyridazine-3-carbonitrile]",2.1
3,"N#Cc1cnc2ccc(-c3c(-c4ccc(F)cc4)ncn3C3COC3)cn12 [78′, 6-(4-(4-fluorophenyl)-1-(oxetan-3-yl)-1H-imidazol-5-yl)imidazo[1,2-a]pyridine-3-carbonitrile]",568
4,"CCOCCn1cnc(-c2ccc(F)cc2)c1-c1ccc2ncc(C(N)=O)n2c1 [178′, 6-(1-(2-ethoxyethyl)-4-(4-fluorophenyl)-1H-imidazol-5-yl)imidazo[1,2-a]pyridine-3-carboxamide]",1.9
5,"N#Cc1cnc2ccc(-c3c(-c4ccc(F)c(Cl)c4)ncn3CCO)cn12 [100′, 6-(4-(3-chloro-4-fluorophenyl)-1-(2-hydroxyethyl)-1H-imidazol-5-yl)imidazo[1,2-a]pyridine-3-carbonitrile]",11.6
6,"N#Cc1cnc2ccc(-c3c(-c4ccc(F)c(Cl)c4)ncn3CCCCl)nn12 [44′, 6-(4-(3-chloro-4-fluorophenyl)-1-(3-chloropropyl)-1H-imidazol-5-yl)imidazo[1,2-b]pyridazine-3-carbonitrile]",1.2
7,"CC(C)(O)c1cnc2ccc(-c3c(-c4ccc(F)cc4)ncn3CC(F)F)nn12 [Example 204′, 2-(6-(1-(2,2-difluoroethyl)-4-(4-fluorophenyl)-1H-imidazol-5-yl)imidazo[1,2-b]pyridazin-3-yl)propan-2-ol]",1.2
8,"CCC(CO)n1cnc(-c2ccc(F)cc2)c1-c1ccc2ncc(C(N)=O)n2c1 (centres unmarked) [179′, 6-(4-(4-fluorophenyl)-1-(1-hydroxybutan-2-yl)-1H-imidazol-5-yl)imidazo[1,2-a]pyridine-3-carboxamide]",2.2
9,"CC(C)n1cnc(-c2ccc(F)cc2)c1-c1ccc2ncc(C(N)=O)n2n1 [135′, 6-(4-(4-fluorophenyl)-1-isopropyl-1H-imidazol-5-yl)imidazo[1,2-b]pyridazine-3-carboxamide]",0.7
10,"N#Cc1cnc2ccc(-c3c(-c4ccc(F)c(Cl)c4)ncn3C3CC(F)C3)nn12 (centres unmarked) [Example 104′, 6-(4-(3-chloro-4-fluorophenyl)-1-(3-fluorocyclobutyl)-1H-imidazol-5-yl)imidazo[1,2-b]pyridazine-3-carbonitrile]",0.5
11,"N#Cc1cnc2ccc(-c3c(-c4ccc(F)cc4)ncn3C(CO)CO)cn12 [85′, 6-(1-(1,3-dihydroxypropan-2-yl)-4-(4-fluorophenyl)-1H-imidazol-5-yl)imidazo[1,2-a]pyridine-3-carbonitrile]",144
12,"CCCn1cnc(-c2ccc(F)cc2)c1-c1ccc2ncc(C#N)n2c1 [87′, 6-(4-(4-fluorophenyl)-1-propyl-1H-imidazol-5-yl)imidazo[1,2-a]pyridine-3-carbonitrile]",40.3
13,"N#Cc1cnc2ccc(-c3c(-c4ccc(F)cc4)ncn3CCC(F)F)nn12 [20′, 6-(1-(3,3-difluoropropyl)-4-(4-fluorophenyl)-1H-imidazol-5-yl)imidazo[1,2-b]pyridazine-3-carbonitrile]",2.2
14,"NC(=O)c1cnc2ccc(-c3c(-c4cc(Cl)ccc4F)ncn3CC(F)F)cn12 [234′, 6-(4-(5-chloro-2-fluorophenyl)-1-(2,2-difluoroethyl)-1H-imidazol-5-yl)imidazo[1,2-a]pyridine-3-carboxamide]",1.1
15,"CC1(n2cnc(-c3ccc(F)c(Cl)c3)c2-c2ccc3ncc(C#N)n3n2)COC1 [43′, 6-(4-(3-chloro-4-fluorophenyl)-1-(3-methyloxetan-3-yl)-1H-imidazol-5-yl)imidazo[1,2-b]pyridazine-3-carbonitrile]",2.7
16,"NC(=O)c1cnc2ccc(-c3c(-c4ccc(F)c(Cl)c4)ncn3CCC3CCC3)nn12 [150′, 6-(4-(3-chloro-4-fluorophenyl)-1-(2-cyclobutylethyl)-1H-imidazol-5-yl)imidazo[1,2-b]pyridazine-3-carboxamide]",1.2
17,"CC(C)(O)Cn1cnc(-c2ccc(F)cc2)c1-c1ccc2ncc(C(N)=O)n2c1 [166′, 6-(4-(4-fluorophenyl)-1-(2-hydroxy-2-methylpropyl)-1H-imidazol-5-yl)imidazo[1,2-a]pyridine-3-carboxamide]",9.1
18,"CC[C@@H](CF)n1cnc(-c2ccc(F)cc2)c1-c1ccc2ncc(C#N)n2n1 [Example 103′, (S)-6-(1-(1-fluorobutan-2-yl)-4-(4-fluorophenyl)-1H-imidazol-5-yl)imidazo[1,2-b]pyridazine-3-carbonitrile]",1.8
